In the Kinase Knowledgebase extract (Sharma et al. 2016):

Columns and labels:
[1] = biological target: EGFR (human) (UniProt P00533)
[2] = biological target: EGFR (human), P00533 [L858R]
[3] = biological target: EGFR (Human), P00533 [T790M/L858R]; settings: baf3
[4] = biological target: EGFR (Human), P00533 [Assessment of EGFR-Del T790M Dependent Cell Proliferation in BaF3 Cells]
[5] = biological target: EGFR (Human), P00533 [T790M/L858R]

Chain of EGFR (Human), P00533 [Assessment of EGFR-Del T790M Dependent Cell Proliferation in BaF3 Cells] (P00533 whole entry, looked up, stated change not applied): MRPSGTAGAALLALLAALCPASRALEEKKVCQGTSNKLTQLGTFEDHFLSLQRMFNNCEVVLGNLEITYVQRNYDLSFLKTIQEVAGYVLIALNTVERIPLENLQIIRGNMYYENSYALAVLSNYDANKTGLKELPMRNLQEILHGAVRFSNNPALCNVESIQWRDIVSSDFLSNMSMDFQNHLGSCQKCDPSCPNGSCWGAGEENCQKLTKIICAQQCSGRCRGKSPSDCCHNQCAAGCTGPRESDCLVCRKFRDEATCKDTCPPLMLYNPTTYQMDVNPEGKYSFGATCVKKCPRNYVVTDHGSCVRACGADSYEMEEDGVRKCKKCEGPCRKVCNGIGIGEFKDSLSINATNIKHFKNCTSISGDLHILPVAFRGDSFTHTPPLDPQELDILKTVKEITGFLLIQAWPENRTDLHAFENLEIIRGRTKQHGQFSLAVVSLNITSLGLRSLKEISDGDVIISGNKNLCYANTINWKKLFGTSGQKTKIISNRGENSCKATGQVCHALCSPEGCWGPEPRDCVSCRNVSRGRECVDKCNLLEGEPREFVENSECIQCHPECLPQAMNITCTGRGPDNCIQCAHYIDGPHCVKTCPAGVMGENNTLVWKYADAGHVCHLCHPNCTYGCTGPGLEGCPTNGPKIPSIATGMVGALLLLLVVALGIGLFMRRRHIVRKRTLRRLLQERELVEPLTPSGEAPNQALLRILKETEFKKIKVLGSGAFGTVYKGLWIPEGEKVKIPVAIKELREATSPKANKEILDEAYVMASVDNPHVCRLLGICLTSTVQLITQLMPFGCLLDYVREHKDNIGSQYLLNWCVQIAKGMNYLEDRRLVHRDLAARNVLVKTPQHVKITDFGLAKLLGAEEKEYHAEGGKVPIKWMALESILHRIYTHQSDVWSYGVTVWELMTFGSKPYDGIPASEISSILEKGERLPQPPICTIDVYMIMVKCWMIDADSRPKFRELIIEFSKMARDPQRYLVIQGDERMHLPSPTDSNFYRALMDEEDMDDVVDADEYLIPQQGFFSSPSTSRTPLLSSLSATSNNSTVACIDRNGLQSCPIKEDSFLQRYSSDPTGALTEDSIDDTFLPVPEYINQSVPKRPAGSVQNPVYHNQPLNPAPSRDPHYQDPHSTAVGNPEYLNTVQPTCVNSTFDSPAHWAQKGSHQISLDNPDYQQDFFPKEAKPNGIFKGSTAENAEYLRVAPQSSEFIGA
Chain of EGFR (human) (P00533 whole entry, looked up): as the sequence (P00533 whole entry, looked up, stated change not applied) above
Chain of EGFR (Human), P00533 [T790M/L858R] (P00533 whole entry T790M/L858R, looked up): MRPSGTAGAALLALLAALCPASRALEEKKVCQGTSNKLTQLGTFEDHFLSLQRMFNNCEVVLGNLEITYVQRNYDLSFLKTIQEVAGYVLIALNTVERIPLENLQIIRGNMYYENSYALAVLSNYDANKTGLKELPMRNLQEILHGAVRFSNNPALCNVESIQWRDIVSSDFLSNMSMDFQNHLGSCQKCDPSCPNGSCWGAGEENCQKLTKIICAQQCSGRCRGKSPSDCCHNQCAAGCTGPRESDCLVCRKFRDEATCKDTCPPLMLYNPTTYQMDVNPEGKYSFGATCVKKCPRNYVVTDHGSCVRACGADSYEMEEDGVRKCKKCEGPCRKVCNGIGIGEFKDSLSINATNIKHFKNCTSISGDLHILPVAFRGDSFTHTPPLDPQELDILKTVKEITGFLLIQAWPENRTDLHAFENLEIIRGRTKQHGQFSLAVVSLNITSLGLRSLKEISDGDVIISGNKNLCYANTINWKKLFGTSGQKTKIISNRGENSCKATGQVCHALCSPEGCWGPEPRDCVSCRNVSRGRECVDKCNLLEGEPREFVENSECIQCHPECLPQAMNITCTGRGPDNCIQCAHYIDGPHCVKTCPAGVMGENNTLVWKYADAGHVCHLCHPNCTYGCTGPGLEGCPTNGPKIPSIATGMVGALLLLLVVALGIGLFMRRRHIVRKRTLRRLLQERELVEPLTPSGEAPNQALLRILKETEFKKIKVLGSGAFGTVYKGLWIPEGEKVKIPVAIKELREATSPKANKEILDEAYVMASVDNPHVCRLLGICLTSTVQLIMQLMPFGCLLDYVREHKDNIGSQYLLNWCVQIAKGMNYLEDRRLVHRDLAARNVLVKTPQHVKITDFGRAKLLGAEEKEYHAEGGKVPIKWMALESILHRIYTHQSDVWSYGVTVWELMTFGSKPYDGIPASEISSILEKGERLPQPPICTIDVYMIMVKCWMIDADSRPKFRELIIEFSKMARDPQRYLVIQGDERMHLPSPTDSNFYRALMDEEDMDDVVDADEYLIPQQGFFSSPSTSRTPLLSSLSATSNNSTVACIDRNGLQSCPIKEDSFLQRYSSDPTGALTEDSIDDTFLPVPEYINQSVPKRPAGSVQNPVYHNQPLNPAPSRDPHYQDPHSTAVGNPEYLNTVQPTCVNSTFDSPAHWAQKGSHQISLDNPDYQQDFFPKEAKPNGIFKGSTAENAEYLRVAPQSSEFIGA
Chain of EGFR (human), P00533 [L858R] (P00533 whole entry L858R, looked up): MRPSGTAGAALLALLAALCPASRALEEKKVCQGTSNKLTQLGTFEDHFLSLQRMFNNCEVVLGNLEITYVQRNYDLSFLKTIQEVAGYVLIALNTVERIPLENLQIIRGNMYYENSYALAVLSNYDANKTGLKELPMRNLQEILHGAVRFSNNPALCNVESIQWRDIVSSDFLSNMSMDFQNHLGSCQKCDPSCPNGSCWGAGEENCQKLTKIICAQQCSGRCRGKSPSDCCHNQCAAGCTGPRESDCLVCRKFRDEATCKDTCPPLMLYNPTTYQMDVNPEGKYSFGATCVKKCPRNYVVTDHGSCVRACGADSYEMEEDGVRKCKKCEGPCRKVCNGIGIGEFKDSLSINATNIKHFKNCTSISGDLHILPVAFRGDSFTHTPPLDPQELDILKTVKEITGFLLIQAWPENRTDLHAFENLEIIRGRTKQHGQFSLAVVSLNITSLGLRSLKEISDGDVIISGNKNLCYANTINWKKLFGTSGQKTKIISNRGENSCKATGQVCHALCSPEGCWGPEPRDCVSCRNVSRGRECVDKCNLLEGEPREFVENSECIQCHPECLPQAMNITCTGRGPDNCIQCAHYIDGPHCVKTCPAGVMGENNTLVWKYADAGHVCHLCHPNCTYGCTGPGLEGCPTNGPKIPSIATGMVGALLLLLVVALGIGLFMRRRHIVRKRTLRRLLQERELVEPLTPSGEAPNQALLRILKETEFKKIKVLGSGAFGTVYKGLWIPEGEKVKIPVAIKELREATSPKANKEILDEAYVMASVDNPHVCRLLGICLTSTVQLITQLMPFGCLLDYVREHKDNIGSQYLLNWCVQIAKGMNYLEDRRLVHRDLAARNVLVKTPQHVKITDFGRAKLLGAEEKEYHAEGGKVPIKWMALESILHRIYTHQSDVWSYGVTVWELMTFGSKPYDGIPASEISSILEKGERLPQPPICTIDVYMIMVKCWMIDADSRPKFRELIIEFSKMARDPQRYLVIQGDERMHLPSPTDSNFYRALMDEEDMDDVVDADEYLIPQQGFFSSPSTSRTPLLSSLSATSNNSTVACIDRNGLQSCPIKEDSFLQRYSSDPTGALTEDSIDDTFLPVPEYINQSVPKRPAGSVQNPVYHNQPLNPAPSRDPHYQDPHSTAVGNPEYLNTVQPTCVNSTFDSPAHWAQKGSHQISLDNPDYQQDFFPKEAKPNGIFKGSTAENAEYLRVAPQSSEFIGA

Row | IC50 [1] | IC50 [2] | IC50 [3] | IC50 [4] | IC50 [5] | SMILES
1 | 0.05 to 0.1 µM | < 0.05 µM | 0.101 to 0.25 µM | < 0.05 µM | < 0.05 µM | C=CC(=O)Nc1cc(Nc2ncc(Cl)c(Nc3ccccc3P(C)(C)=O)n2)c(OC)cc1N1CCC(N2CCCC2)CC1
2 | < 0.05 µM | < 0.05 µM | < 0.05 µM | < 0.05 µM | < 0.05 µM | COc1ccc(NC(=O)/C=C/Cl)cc1Nc1ncc(Cl)c(Nc2ccccc2P(C)(C)=O)n1
3 | < 0.05 µM | < 0.05 µM | < 0.05 µM | < 0.05 µM | < 0.05 µM | C=CC(=O)Nc1cc(Nc2ncc(Cl)c(Nc3ccccc3P(C)(C)=O)n2)c(OC)cc1C#CC(C)(C)N(C)C
4 | < 0.05 µM | < 0.05 µM | < 0.05 µM | < 0.05 µM | < 0.05 µM | C=CC(=O)Nc1cc(Nc2ncc(Cl)c(Nc3ccccc3P(C)(C)=O)n2)c(OC)cc1C#CCN(C)C
5 | < 0.05 µM | < 0.05 µM | < 0.05 µM | < 0.05 µM | < 0.05 µM | C=C(CN1CCN(S(C)(=O)=O)CC1)C(=O)Nc1ccc(OC)c(Nc2ncc(Cl)c(Nc3ccccc3P(C)(C)=O)n2)c1
6 | < 0.05 µM | < 0.05 µM | < 0.05 µM | < 0.05 µM | < 0.05 µM | C=CC(=O)Nc1cc(Nc2ncc(Cl)c(Nc3ccccc3P(C)(C)=O)n2)c(OC)cc1C#CC(C)(C)N
7 | < 0.05 µM | < 0.05 µM | < 0.05 µM | < 0.05 µM | < 0.05 µM | C=CC(=O)Nc1cc(Nc2ncc(Cl)c(Nc3ccccc3P(C)(C)=O)n2)c(OC)cc1N1CCC(N(CC)CC)C1 (stereo not given)
8 | < 0.05 µM | < 0.05 µM | < 0.05 µM | < 0.05 µM | < 0.05 µM | C=CC(=O)Nc1cc(Nc2ncc(Cl)c(Nc3ccccc3P(C)(C)=O)n2)c(OC)cc1C#CCNC
9 | < 0.05 µM | < 0.05 µM | 0.101 to 0.25 µM | < 0.05 µM | < 0.05 µM | C=CC(=O)Nc1cc(Nc2ncc(Cl)c(Nc3ccccc3P(C)(C)=O)n2)c(OC)cc1C#CCN1CCN(C)CC1
10 | < 0.05 µM | < 0.05 µM | < 0.05 µM | < 0.05 µM | < 0.05 µM | C=CC(=O)Nc1cc(Nc2ncc(Cl)c(Nc3ccccc3P(C)(C)=O)n2)c(CC)cc1C#CCN(C)C
11 | < 0.05 µM | < 0.05 µM | < 0.05 µM | < 0.05 µM | < 0.05 µM | COc1cc(C)c(NC(=O)CCl)cc1Nc1ncc(Cl)c(Nc2ccccc2P(C)(C)=O)n1
12 | < 0.05 µM | < 0.05 µM | < 0.05 µM | < 0.05 µM | < 0.05 µM | C=CC(=O)Nc1cc(Nc2ncc(Cl)c(Nc3ccccc3P(C)(C)=O)n2)c(OC)cc1N1CCC(N2CCOCC2)CC1
13 | < 0.05 µM | < 0.05 µM | < 0.05 µM | < 0.05 µM | < 0.05 µM | C=CC(=O)Nc1cc(Nc2ncc(Cl)c(Nc3ccccc3P(C)(C)=O)n2)c(OC)cc1C#CCN1CCCCC1
14 | < 0.05 µM | < 0.05 µM | < 0.05 µM | < 0.05 µM | < 0.05 µM | C=CC(=O)Nc1cc(Nc2ncc(Cl)c(Nc3ccccc3P(C)(C)=O)n2)c(Cl)cc1C#CCN(C)C
15 | < 0.05 µM | < 0.05 µM | < 0.05 µM | < 0.05 µM | < 0.05 µM | COc1cc(F)c(NC(=O)C#CCN(C)C)cc1Nc1ncc(Cl)c(Nc2ccccc2P(C)(C)=O)n1
16 | < 0.05 µM | < 0.05 µM | 0.101 to 0.25 µM | 0.101 to 0.25 µM | < 0.05 µM | COc1cc(N2CCCC2)c(NC(=O)C#CCCN2CCN(C)CC2)cc1Nc1ncc(Cl)c(Nc2ccccc2P(C)(C)=O)n1
17 | < 0.05 µM | < 0.05 µM | < 0.05 µM | < 0.05 µM | < 0.05 µM | C=CC(=O)Nc1cc(Nc2ncc(Cl)c(Nc3ccccc3P(C)(C)=O)n2)c(OC)cc1N1CCC(N(C)CCOC)C1 (stereo not given)
18 | < 0.05 µM | < 0.05 µM | < 0.05 µM | < 0.05 µM | < 0.05 µM | C=C(CN1CCN(C)CC1)C(=O)Nc1ccc(OC)c(Nc2ncc(Cl)c(Nc3ccccc3P(C)(C)=O)n2)c1
19 | < 0.05 µM | < 0.05 µM | < 0.05 µM | < 0.05 µM | < 0.05 µM | COCCC#CC(=O)Nc1cc(Nc2ncc(Cl)c(Nc3ccccc3P(C)(C)=O)n2)c(OC)cc1N1CCOCC1
20 | < 0.05 µM | < 0.05 µM | < 0.05 µM | < 0.05 µM | < 0.05 µM | C=C(CN1CCCC1)C(=O)Nc1ccc(OC)c(Nc2ncc(Cl)c(Nc3ccccc3P(C)(C)=O)n2)c1
21 | 0.05 to 0.1 µM | < 0.05 µM | 0.101 to 0.25 µM | 0.05 to 0.1 µM | < 0.05 µM | C=CC(=O)Nc1cc(Nc2ncc(Cl)c(Nc3ccccc3P(C)(C)=O)n2)c(OC)cc1OCc1cccnc1
22 | < 0.05 µM | < 0.05 µM | < 0.05 µM | < 0.05 µM | < 0.05 µM | C=CC(=O)Nc1cc(Nc2ncc(Cl)c(Nc3ccccc3P(C)(C)=O)n2)c(OC)cc1OC1CCCN(CCOC)C1 (stereo not given)
23 | < 0.05 µM | < 0.05 µM | < 0.05 µM | < 0.05 µM | < 0.05 µM | COCC#CC(=O)Nc1cc(Nc2ncc(Cl)c(Nc3ccccc3P(C)(C)=O)n2)c(OC)cc1N1CCC(N(C)C)C1 (stereo not given)
24 | < 0.05 µM | < 0.05 µM | < 0.05 µM | < 0.05 µM | < 0.05 µM | COCC1CCCN1CCC#CC(=O)Nc1cc(Nc2ncc(Cl)c(Nc3ccccc3P(C)(C)=O)n2)c(OC)cc1N1CCOCC1 (stereo not given)
25 | < 0.05 µM | < 0.05 µM | < 0.05 µM | < 0.05 µM | < 0.05 µM | C=CC(=O)Nc1cc(Nc2ncc(Cl)c(Nc3ccccc3P(C)(C)=O)n2)c(OC)cc1C#CC(C)(C)N(CC)CC

Further lines, the compound ahead of its results:

Row | SMILES | IC50 [1] | IC50 [2] | IC50 [3] | IC50 [4] | IC50 [5]
26 | C=CC(=O)Nc1cc(Nc2ncc(Cl)c(Nc3ccccc3P(C)(C)=O)n2)c(OC)cc1OCCN1CCCCC1 | < 0.05 µM | < 0.05 µM | < 0.05 µM | < 0.05 µM | < 0.05 µM
27 | C=CC(=O)Nc1cc(Nc2ncc(C3CC3)c(Nc3ccccc3P(C)(C)=O)n2)c(OC)cc1N(C)CCN(CC)CC | < 0.05 µM | < 0.05 µM | < 0.05 µM | < 0.05 µM | < 0.05 µM
28 | C=CC(=O)Nc1cc(Nc2ncc(Cl)c(Nc3ccccc3P(C)(C)=O)n2)c(OC)cc1C#CCCN(C)C | < 0.05 µM | < 0.05 µM | < 0.05 µM | < 0.05 µM | < 0.05 µM
29 | C=CC(=O)Nc1cc(Nc2ncc(Cl)c(Nc3ccccc3P(C)(C)=O)n2)c(OC)cc1C | < 0.05 µM | < 0.05 µM | < 0.05 µM | < 0.05 µM | < 0.05 µM
30 | C=CC(=O)Nc1cc(Nc2ncc(Cl)c(Nc3ccccc3P(C)(C)=O)n2)c(OC)cc1N1CCC(N2CCCCC2)CC1 | < 0.05 µM | < 0.05 µM | < 0.05 µM | < 0.05 µM | < 0.05 µM
31 | C=CC(=O)Nc1ccc(OC)c(Nc2ncc(OC)c(Nc3ccccc3P(C)(C)=O)n2)c1 | 0.05 to 0.1 µM | < 0.05 µM | 0.05 to 0.1 µM | < 0.05 µM | < 0.05 µM
32 | C=CC(=O)Nc1ccc(OC)c(Nc2ncc(Cl)c(Nc3ccc(OCCN4CCCCC4)cc3P(C)(C)=O)n2)c1 | < 0.05 µM | < 0.05 µM | < 0.05 µM | < 0.05 µM | < 0.05 µM
33 | C=CC(=O)Nc1cc(Nc2ncc(Cl)c(Nc3ccccc3P(C)(C)=O)n2)c(OC)cc1C#CCN(C)CCOC | < 0.05 µM | < 0.05 µM | < 0.05 µM | < 0.05 µM | < 0.05 µM
34 | C=CC(=O)Nc1ccc(OC)c(Nc2ncc(Cl)c(Nc3ccc(OC4CCOC4)cc3P(C)(C)=O)n2)c1 (stereo not given) | < 0.05 µM | < 0.05 µM | 0.05 to 0.1 µM | < 0.05 µM | < 0.05 µM
35 | C=CC(=O)Nc1ccc(OC)c(Nc2ncc(Cl)c(Nc3ccc(OCC4CCOCC4)cc3P(C)(C)=O)n2)c1 | 0.05 to 0.1 µM | < 0.05 µM | < 0.05 µM | < 0.05 µM | < 0.05 µM
36 | C=CC(=O)Nc1cc(Nc2ncc(Cl)c(Nc3ccccc3P(C)(C)=O)n2)c(OC)cc1C#CCN(C)CC | < 0.05 µM | < 0.05 µM | < 0.05 µM | < 0.05 µM | < 0.05 µM
37 | COc1cc(F)c(NC(=O)C#CCN2CCCC2)cc1Nc1ncc(Cl)c(Nc2ccccc2P(C)(C)=O)n1 | < 0.05 µM | < 0.05 µM | < 0.05 µM | < 0.05 µM | < 0.05 µM
38 | C=CC(=O)Nc1ccc(CC)c(Nc2ncc(Cl)c(Nc3ccccc3P(C)(C)=O)n2)c1 | < 0.05 µM | < 0.05 µM | < 0.05 µM | < 0.05 µM | < 0.05 µM
39 | CC#CC(=O)Nc1cc(Nc2ncc(Cl)c(Nc3ccccc3P(C)(C)=O)n2)c(OC)cc1N1CCC(N(C)C)C1 (stereo not given) | < 0.05 µM | < 0.05 µM | 0.05 to 0.1 µM | < 0.05 µM | < 0.05 µM
40 | C=CC(=O)Nc1cc(Nc2ncc(Cl)c(Nc3ccccc3P(C)(C)=O)n2)c(OC)cc1N(C)CCN(C)CCF | < 0.05 µM | < 0.05 µM | < 0.05 µM | < 0.05 µM | < 0.05 µM
41 | C=CC(=O)Nc1cc(Nc2ncc(Cl)c(Nc3ccccc3P(C)(C)=O)n2)c(OC)cc1CN1CCN(C)CC1 | < 0.05 µM | < 0.05 µM | 0.05 to 0.1 µM | < 0.05 µM | < 0.05 µM
42 | COc1ccc(NC(=O)C#CC(C)(C)N2CCCC2)cc1Nc1ncc(Cl)c(Nc2ccccc2P(C)(C)=O)n1 | < 0.05 µM | < 0.05 µM | < 0.05 µM | < 0.05 µM | < 0.05 µM
43 | C=CC(=O)Nc1cc(Nc2ncc(Cl)c(Nc3ccccc3P(C)(C)=O)n2)c(OC)cc1N1CCC(N2CCCCC2)C1 (stereo not given) | < 0.05 µM | < 0.05 µM | < 0.05 µM | < 0.05 µM | < 0.05 µM
44 | C=CC(=O)Nc1ccc(Cl)c(Nc2ncc(Cl)c(Nc3ccccc3P(C)(C)=O)n2)c1 | < 0.05 µM | < 0.05 µM | < 0.05 µM | < 0.05 µM | < 0.05 µM
